# Data reported in the supplement of paper PMC10307832.
# Columns and labels:
# Assay in all cases: relative viability (nuclei count vs DMSO), 5 days (fraction); higher = more cells survive
# [1] = compound: Cc1ccc(-n2nc(C(C)(C)C)cc2NC(=O)Nc2ccc(OCCN3CCOCC3)c3ccccc23)cc1 [Doramapimod] + CC(C)C[C@H](NC(=O)[C@H](Cc1ccccc1)NC(=O)c1cnccn1)B(O)O [Bortezomib] (partner 0.002 µM)
# Procedure, shortened: (§1)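 Relative viability divides the nuclei count in treated wells by that in vehicle wells. Lung cancer cell lines were seeded in 1536-well plates, dosed by pin tool the next day, and fixed and stained after 5 days in one step with final 0.05% Triton X-100, 1% formaldehyde and 1 ug/ml Hoechst. Dosing was a single drug or a fixed anchor-drug dose plus five library-drug doses (not always all listed) in √10 steps, and values are medians of duplicate plates imaged at 4×.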
# [2] = compound: Cn1c(Nc2ccc(C(F)(F)F)cc2)nc2cc(Oc3ccnc(-c4ncc(C(F)(F)F)[nH]4)c3)ccc21 [RAF265] + COc1cc2c(Oc3ccc(NC(=O)C4(C(=O)Nc5ccc(F)cc5)CC4)cc3F)ccnc2cc1OCCCN1CCOCC1 [Foretinib] (partner 0.25 µM)
# Procedure, shortened: as §1
# [3] = compound: Cn1c(Nc2ccc(C(F)(F)F)cc2)nc2cc(Oc3ccnc(-c4ncc(C(F)(F)F)[nH]4)c3)ccc21 [RAF265] + CS(=O)(=O)CCNCc1ccc(-c2ccc3ncnc(Nc4ccc(OCc5cccc(F)c5)c(Cl)c4)c3c2)o1 [Lapatinib] (partner 2 µM)
# Procedure, shortened: as §1
# [4] = compound: Cn1c(Nc2ccc(C(F)(F)F)cc2)nc2cc(Oc3ccnc(-c4ncc(C(F)(F)F)[nH]4)c3)ccc21 [RAF265] + C[C@@H](Oc1cc(-c2cnn(C3CCNCC3)c2)cnc1N)c1c(Cl)ccc(F)c1Cl [Crizotinib] (partner 1 µM)
# Procedure, shortened: as §1
Cell Line,relative viability ([1]; first compound 0.02 µM),relative viability ([1]; first compound 0.06325 µM),relative viability ([1]; first compound 0.2 µM),relative viability ([1]; first compound 0.6325 µM),relative viability ([1]; first compound 2 µM),relative viability ([2]; first compound 0.01 µM),relative viability ([2]; first compound 0.03162 µM),relative viability ([2]; first compound 0.1 µM),relative viability ([2]; first compound 0.3162 µM),relative viability ([2]; first compound 1 µM),relative viability ([3]; first compound 0.01 µM),relative viability ([3]; first compound 0.03162 µM),relative viability ([3]; first compound 0.1 µM),relative viability ([3]; first compound 0.3162 µM),relative viability ([3]; first compound 1 µM),relative viability ([4]; first compound 0.01 µM),relative viability ([4]; first compound 0.03162 µM),relative viability ([4]; first compound 0.1 µM),relative viability ([4]; first compound 0.3162 µM),relative viability ([4]; first compound 1 µM)
ABC-1,0.297,0.302,0.262,0.345,0.296,1.16,1.15,1.2,1.08,0.514,1.08,1.01,1.2,1.25,0.886,1.17,0.864,1.37,0.851,0.464
NCI-H647,1.13,0.985,0.912,1.05,0.861,1.14,0.867,0.957,0.979,0.659,1.19,0.937,0.828,0.711,0.809,1.07,0.938,0.873,0.541,0.689
NCI-H1755,1.03,1,0.793,0.897,0.831,0.951,0.884,0.926,0.727,0.568,1.06,1.06,1.03,0.974,0.622,0.837,0.757,0.813,0.685,0.476
EPLC-272H,0.873,0.779,0.848,0.881,0.655,0.721,0.39,0.506,0.208,0.135,0.976,0.707,0.655,0.855,0.343,0.765,0.868,1.32,0.472,0.434
NCI-H1437,0.586,0.643,0.551,0.464,0.495,1.22,1.28,1.28,1.33,1.31,0.897,0.776,0.77,0.784,0.78,0.902,0.808,0.998,1.05,0.768
EKVX,1.04,0.997,1.08,0.967,1.11,1.21,0.676,0.963,0.419,0.715,0.189,0.199,0.228,0.153,0.187,0.909,0.625,0.998,0.805,0.773
NCI-H1651,0.922,0.996,0.931,0.987,0.907,0.86,0.808,0.75,0.844,0.584,0.931,0.797,0.864,0.669,0.644,0.829,0.912,0.904,0.88,0.81
HCC-15,1.02,1.05,1.04,0.801,0.907,1.03,1.04,0.991,0.883,0.673,0.832,0.893,0.847,0.657,0.638,0.83,0.817,0.836,0.566,0.499
